# Assay results as given in US6737383B1, “Herbicidal oxadiazolidines” (priority 1999, dated 2004).
# Legend:
# [1] = system: purple nutsedge; experiment: Test B pre/postemergence purple nutsedge; format: in vivo, Cyperus rotundus
# In short: (§1)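 Herbicidal effect was estimated by eye on a ten-point control scale after plants spent twelve to sixteen days in a greenhouse following soil or foliar treatment. Foliar sprays targeted plants at one to four leaves; all doses were formulated in a non-phytotoxic solvent with surfactant.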
# [2] = system: wild oat; experiment: Test B pre/postemergence wild oat; format: in vivo, Avena fatua
# In short: as §1
# [3] = system: giant foxtail; experiment: Test B pre/postemergence giant foxtail; format: in vivo, Setaria faberii
# In short: as §1
# [4] = system: pigweed; experiment: Test B pre/postemergence pigweed; format: in vivo, Amaranthus retroflexus
# In short: as §1
# [5] = system: rice; experiment: Test B flood test rice; format: in vivo, Oryza sativa
# In short: (§2)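 Each value is a visual injury score relative to controls, with 10 meaning complete control and 0 no effect. Evaluation took place twelve to sixteen days after the 2-leaf-stage plants were treated and kept in the greenhouse.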
# [6] = system: sugar beet; experiment: Test B pre/postemergence sugar beet; format: in vivo, Beta vulgaris
# In short: as §1
# [7] = system: corn; experiment: Test B pre/postemergence corn; format: in vivo, Zea mays
# In short: as §1
# [8] = system: wheat; experiment: Test B pre/postemergence wheat; format: in vivo, Triticum aestivum
# In short: as §1
# [9] = system: rape; experiment: Test B pre/postemergence rape; format: in vivo, Brassica napus
# In short: as §1
# [10] = system: morningglory; experiment: Test B pre/postemergence morningglory; format: in vivo, Ipomoea hederacea
# In short: as §1
# [11] = system: cocklebur; experiment: Test B pre/postemergence cocklebur; format: in vivo, Xanthium strumarium
# In short: as §1
# [12] = system: crabgrass; experiment: Test B pre/postemergence crabgrass; format: in vivo, Digitaria sanguinalis
# In short: as §1
# [13] = system: surinam grass; experiment: Test B pre/postemergence surinam grass; format: in vivo, Brachiaria decumbens
# In short: as §1
# [14] = system: smallflower flatsedge; experiment: Test B flood test smallflower flatsedge; format: in vivo, Cyperus difformis
# In short: as §2
# [15] = system: bamyardgrass; experiment: Test B flood test barnyardgrass; format: in vivo, Echinochloa crus-galli
# In short: as §2
# [16] = system: duck salad; experiment: Test B flood test duck salad; format: in vivo, Heteranthera limosa
# In short: as §2
# [17] = Postemergence, Rate 62 g/ha, scale 0 to 10, 0 is no effect, 10 is complete control
# [18] = Postemergence, Rate 250 g/ha, scale 0 to 10, 0 no effect, 10 complete control
# [19] = Preemergence, Rate 62 g/ha, scale 0 to 10, 0 is no effect, 10 is complete control
# [20] = Preemergence, Rate 125 g/ha, scale 0 to 10 (0 no effect, 10 complete control)
# [21] = Preemergence, Rate 500 g/ha, scale 0 (no effect) to 10 (complete control)
# [22] = Rate 125 g/ha, Postemergence, scale 0 to 10, 0 no effect, 10 complete control
# [23] = Rate 500 g/ha, Postemergence, 0 to 10 scale (0 no effect, 10 complete control)
# [24] = Preemergence, Rate 250 g/ha, scale of 0 to 10 where 0 is no effect and 10 is complete control
# [25] = Rate 125 g/ha, Postemergence section (flood test species), scale 0 to 10, 0 no effect, 10 complete control
# [26] = Rate 500 g/ha, Postemergence section of Table B, 0 to 10 scale (0 no effect, 10 complete control)
# [27] = flood test, listed under Postemergence, Rate 250 g/ha, scale 0 to 10, 0 no effect, 10 complete control
smiles,measurement,setting,value
CC(C)N(C(=O)n1oc(=O)n(-c2ccccc2C(F)(F)F)c1=O)c1ccc(F)cc1 [Compound 15],Nutsedge plant response rating,[1]; [17],0
same,Nutsedge plant response rating,[1]; [18],0
same,"Plant response rating, Nutsedge",[1]; [19],0
same,"Plant response rating, Nutsedge",[1]; [20],0
same,Nutsedge plant response rating,[1]; [21],0
same,Nutsedge plant response rating,[1]; [22],0
same,Nutsedge plant response rating,[1]; [23],0
same,Wild oats plant response rating,[2]; [17],0
same,Wild oats plant response rating,[2]; [18],0
same,"Plant response rating, Wild oats",[2]; [20],0
same,"Plant response rating, Wild oats",[2]; [24],0
same,Wild oats plant response rating,[2]; [21],0
same,Wild oats plant response rating,[2]; [22],0
same,Giant foxtail plant response rating,[3]; [17],0
same,Giant foxtail plant response rating,[3]; [18],0
same,"Plant response rating, Giant foxtail",[3]; [19],6
same,"Plant response rating, Giant foxtail",[3]; [20],8
same,Giant foxtail plant response rating,[3]; [21],10
same,Giant foxtail plant response rating,[3]; [22],0
same,Giant foxtail plant response rating,[3]; [23],0
same,Redroot pigweed plant response rating,[4]; [17],0
same,Redroot pigweed plant response rating,[4]; [18],2
same,"Plant response rating, Redroot pigweed",[4]; [19],0
same,"Plant response rating, Redroot pigweed",[4]; [20],0
same,"Plant response rating, Redroot pigweed",[4]; [24],0
same,Redroot pigweed plant response rating,[4]; [21],8
same,Redroot pigweed plant response rating,[4]; [22],0
same,Redroot pigweed plant response rating,[4]; [23],6
same,Rice plant response rating,[5]; [17],0
same,Rice plant response rating,[5]; [25],0
same,Rice plant response rating,[5]; [26],0
same,Rice plant response rating,[5]; [27],0
same,Sugarbeets plant response rating,[6]; [17],0
same,Sugarbeets plant response rating,[6]; [18],0
same,"Plant response rating, Sugarbeets",[6]; [19],0
same,"Plant response rating, Sugarbeets",[6]; [20],0
same,"Plant response rating, Sugarbeets",[6]; [24],3
same,Sugarbeets plant response rating,[6]; [21],6
same,Sugarbeets plant response rating,[6]; [22],0
same,Corn plant response rating,[7]; [17],0
same,Corn plant response rating,[7]; [18],0
same,"Plant response rating, Corn",[7]; [19],0
same,"Plant response rating, Corn",[7]; [20],0
same,Corn plant response rating,[7]; [21],0
same,Corn plant response rating,[7]; [22],0
same,Corn plant response rating,[7]; [23],0
same,Wheat plant response rating,[8]; [17],0
same,Wheat plant response rating,[8]; [18],0
same,"Plant response rating, Wheat",[8]; [19],0
same,"Plant response rating, Wheat",[8]; [20],0
same,"Plant response rating, Wheat",[8]; [24],0
same,Wheat plant response rating,[8]; [21],0
same,Wheat plant response rating,[8]; [22],0
same,Rape plant response rating,[9]; [17],0
same,Rape plant response rating,[9]; [18],0
same,"Plant response rating, Rape",[9]; [19],0
same,"Plant response rating, Rape",[9]; [20],0
same,"Plant response rating, Rape",[9]; [24],0
same,Rape plant response rating,[9]; [21],0
same,Rape plant response rating,[9]; [22],0
same,Rape plant response rating,[9]; [23],0
same,Morningglory plant response rating,[10]; [17],2
same,Morningglory plant response rating,[10]; [18],6
same,"Plant response rating, Morningglory",[10]; [19],0
same,"Plant response rating, Morningglory",[10]; [20],0
same,Morningglory plant response rating,[10]; [21],0
same,Morningglory plant response rating,[10]; [22],2
same,Morningglory plant response rating,[10]; [23],7
same,Cocklebur plant response rating,[11]; [17],0
same,Cocklebur plant response rating,[11]; [18],5
same,"Plant response rating, Cocklebur",[11]; [19],0
same,"Plant response rating, Cocklebur",[11]; [20],0
same,Cocklebur plant response rating,[11]; [21],0
same,Cocklebur plant response rating,[11]; [22],0
same,Cocklebur plant response rating,[11]; [23],8
same,Crabgrass plant response rating,[12]; [17],0
same,Crabgrass plant response rating,[12]; [18],3
same,"Plant response rating, Crabgrass",[12]; [19],0
same,"Plant response rating, Crabgrass",[12]; [20],2
same,Crabgrass plant response rating,[12]; [21],10
same,Crabgrass plant response rating,[12]; [22],1
same,Crabgrass plant response rating,[12]; [23],8
same,B. signalgrass plant response rating,[13]; [17],0
same,B. signalgrass plant response rating,[13]; [18],0
same,"Plant response rating, B. signalgrass",[13]; [19],0
same,"Plant response rating, B. signalgrass",[13]; [20],0
same,"Plant response rating, B. signalgrass",[13]; [24],0
same,B. signalgrass plant response rating,[13]; [21],0
same,B. signalgrass plant response rating,[13]; [22],0
same,B. signalgrass plant response rating,[13]; [23],0
same,S. Flatsedge plant response rating,[14]; [17],0
same,S. Flatsedge plant response rating,[14]; [25],0
same,S. Flatsedge plant response rating,[14]; [27],0
same,Barnyardgrass plant response rating,[15]; [17],0
same,Barnyardgrass plant response rating,[15]; [25],0
same,Barnyardgrass plant response rating,[15]; [26],0
same,Barnyardgrass plant response rating,[15]; [27],0
same,Ducksalad plant response rating,[16]; [17],0
same,Ducksalad plant response rating,[16]; [25],0
same,Ducksalad plant response rating,[16]; [26],0
same,Ducksalad plant response rating,[16]; [27],0
